Reference: US6919349B2, “Spiro compounds and adhesion molecule inhibitors containing the same as the active ingredient” (Toray Industries, Inc., priority 2000, dated 2005)

Biological target: VLA-4-IgG chimera protein (Homo sapiens, UniProt P05556+P13612)
Assay: Inhibitory effect against binding between CS-1 peptide and VLA-4-IgG chimera protein
Conditions: binding of VLA-4-IgG chimera protein to immobilized CS-1 peptide conjugate; compound pre-reacted with chimera protein 20 min; 30° C. 3 hours; absorbance 490 nm
Experimental: The inhibitory activity of the compound according to the present invention against the adhesion of VLA-4 may be determined by using an adhesion-measuring system in which the adhesion between VLA-4-expressing cells such as Ramos cells or Jurkat cells and fibronectin or fibronectin fragment such as a peptide containing CS-1 sequence (Gly Pro Glu Ile Leu Asp Val Pro Ser Thr) (hereinafter referred to as “CS-1 peptide”), immobilized on an immunoplate is measured. Alternatively, a binding-measuring system in which the adhesion between VLA-4 protein and fibronectin or fibronectin fragment such as CS-1 peptide, immobilized on an immunoplate may be used. In the present invention, it is preferred to evaluate the inhibitory activity of a compound using a binding-measuring system in which adhesion between a chimera protein of VLA-4-immunoglobulin (VLA-4-IgG chimera protein) and CS-1 peptide (Japanese Patent Application No. H9-234544), but the method is not restricted thereto. The “VLA-4-IgG chimera protein” herein means the heterodimer complex of the chimera protein between α4 of VLA-4 and immunoglobulin (hereinafter referred to as “VLAα4-IgG chimera protein”) and a chimera protein between β1 of VLA-4 and immunoglobulin (hereinafter referred to as “VLAβ1-IgG chimera protein”). As the immunoglobulin, although heavy chain or light chain of IgG, IgM or the like may be used, IgG1 heavy chain is used in the present invention. When testing the inhibitory effect of a compound, it is preferred to mix VLA-4-IgG chimera protein and the test compound previously.
In accordance with the teaching of a report (Humphrise, M. J. et al. J.Bio.Chem.,262,6886-6892(1987)), a conjugate between a peptide (Gys Leu His Gly Pro Glu Glu Ile Leu Asp Val Pro Ser Thr) containing CS-1 sequence and rabbit IgG (Sigma) was prepared. This was diluted with phosphate buffer (hereinafter referred to as “PBS(−)” for short), and the obtained solution was placed in the wells of a 96-well immunoplate (NUNC) in an amount of 100 μl/well, followed by leaving to stand the immunoplate at 4° C. for 16 hours to immobilize the conjugate.
The wells were then washed twice with PBS(−), and 1% BSA solution in PBS, which BSA was heated at 80° C. for 10 minutes, was placed in each well in an amount of 300 μl/well. The immunoplate was left to stand at 4° C. for 3 hours, and then the solution in each well was removed by suction.
Each compound and VLA-4-IgG chimera protein (100 μl) were preliminarily reacted at room temperature for 20 minutes, and then the resulting mixture was allowed to react with the CS-1peptide in each well at 30° C. for 3 hours. Thereafter, non-bound VLA-4-IgG chimera protein was removed by suction, and each well was washed twice with 0.1% BSA-containing TBS buffer (150 mM NaCl, 25 mM Tris-HCl, 1 mM MnCl2, PH7.4). To the bound VLA-4-IgG chimera protein, biotin-labelled anti-human IgG antibody (Vector) as a primary antibody was added, and then avidin-labelled horse radish peroxidase (Sigma) as a secondary antibody was added, thereby allowing the reactions. Then o-phenylenediamine as a substrate was added to color the reaction solution, and the absorbance at 490 nm was measured. From this absorbance, the binding inhibitory activity of each compound was determined.

Chain of VLA-4-IgG chimera protein (P13612 with tags, fused parts or gaps limits assumed): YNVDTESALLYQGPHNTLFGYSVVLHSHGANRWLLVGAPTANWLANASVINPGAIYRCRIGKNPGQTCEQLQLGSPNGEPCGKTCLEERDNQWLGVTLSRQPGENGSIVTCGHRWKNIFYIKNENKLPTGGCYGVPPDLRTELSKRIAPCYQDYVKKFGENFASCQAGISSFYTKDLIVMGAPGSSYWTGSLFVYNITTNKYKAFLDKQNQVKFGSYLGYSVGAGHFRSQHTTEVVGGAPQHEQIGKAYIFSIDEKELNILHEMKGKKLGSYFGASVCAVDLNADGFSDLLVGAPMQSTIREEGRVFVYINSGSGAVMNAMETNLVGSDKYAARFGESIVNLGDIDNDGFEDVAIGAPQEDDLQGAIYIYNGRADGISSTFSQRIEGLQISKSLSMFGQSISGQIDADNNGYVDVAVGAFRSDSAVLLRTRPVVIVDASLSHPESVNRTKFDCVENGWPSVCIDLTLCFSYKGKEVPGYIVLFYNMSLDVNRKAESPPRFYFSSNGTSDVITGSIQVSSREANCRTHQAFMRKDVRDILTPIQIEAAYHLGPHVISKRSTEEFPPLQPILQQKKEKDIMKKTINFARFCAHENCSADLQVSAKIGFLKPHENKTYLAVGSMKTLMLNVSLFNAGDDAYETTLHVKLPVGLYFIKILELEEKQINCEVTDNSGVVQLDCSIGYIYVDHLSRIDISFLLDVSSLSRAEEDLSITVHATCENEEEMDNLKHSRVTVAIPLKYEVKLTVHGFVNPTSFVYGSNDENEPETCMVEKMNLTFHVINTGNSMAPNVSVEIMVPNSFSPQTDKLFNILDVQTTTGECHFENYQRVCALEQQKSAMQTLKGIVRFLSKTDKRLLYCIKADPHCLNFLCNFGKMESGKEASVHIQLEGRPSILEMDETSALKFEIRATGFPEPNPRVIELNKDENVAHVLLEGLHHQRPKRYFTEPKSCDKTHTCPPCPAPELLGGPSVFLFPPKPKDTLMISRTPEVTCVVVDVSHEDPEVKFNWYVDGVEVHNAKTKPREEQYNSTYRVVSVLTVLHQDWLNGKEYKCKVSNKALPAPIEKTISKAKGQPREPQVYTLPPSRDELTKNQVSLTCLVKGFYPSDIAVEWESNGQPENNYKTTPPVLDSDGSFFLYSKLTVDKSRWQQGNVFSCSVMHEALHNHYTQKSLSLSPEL
Chain of VLA-4-IgG chimera protein (P05556 with tags, fused parts or gaps limits assumed): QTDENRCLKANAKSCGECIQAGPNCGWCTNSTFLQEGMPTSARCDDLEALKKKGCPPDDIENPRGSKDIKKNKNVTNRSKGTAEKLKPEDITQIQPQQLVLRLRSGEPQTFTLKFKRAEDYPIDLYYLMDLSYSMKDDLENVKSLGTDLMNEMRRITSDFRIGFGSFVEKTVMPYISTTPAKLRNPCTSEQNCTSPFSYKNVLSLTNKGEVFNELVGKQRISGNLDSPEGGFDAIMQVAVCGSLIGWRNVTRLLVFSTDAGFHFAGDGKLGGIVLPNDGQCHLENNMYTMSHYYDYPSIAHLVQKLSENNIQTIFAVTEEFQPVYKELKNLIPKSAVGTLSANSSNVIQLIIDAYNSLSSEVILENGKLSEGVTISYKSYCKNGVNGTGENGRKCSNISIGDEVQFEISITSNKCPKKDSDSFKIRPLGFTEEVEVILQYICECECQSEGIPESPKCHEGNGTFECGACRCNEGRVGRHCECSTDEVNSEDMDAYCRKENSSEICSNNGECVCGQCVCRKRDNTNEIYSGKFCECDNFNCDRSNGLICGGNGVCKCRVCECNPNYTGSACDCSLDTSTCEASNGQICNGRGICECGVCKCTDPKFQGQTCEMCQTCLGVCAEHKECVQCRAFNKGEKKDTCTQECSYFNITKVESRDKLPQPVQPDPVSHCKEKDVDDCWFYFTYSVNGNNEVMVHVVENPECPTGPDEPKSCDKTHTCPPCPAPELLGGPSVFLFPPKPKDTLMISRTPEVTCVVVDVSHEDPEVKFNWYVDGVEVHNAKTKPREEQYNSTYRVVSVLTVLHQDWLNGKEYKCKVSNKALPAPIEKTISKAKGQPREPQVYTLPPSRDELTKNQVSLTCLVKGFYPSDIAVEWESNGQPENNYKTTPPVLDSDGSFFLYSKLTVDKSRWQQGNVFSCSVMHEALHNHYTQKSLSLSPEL

IC50 [nM] | SMILES
6.1 | O=C(N[C@@H](CNC(=O)N1CCC2(CC1)C(=O)NCN2c1ccccc1)C(=O)O)c1c(Cl)cccc1Cl [Compound 3, 3-((2,4,8-triaza-1-oxo-4-phenylspiro[4.5]dec-8-yl)carbonylamino)-2-((2,6-dichlorophenyl)carbonylamino)propanoic acid]
18 | COc1cccc(OC)c1C(=O)N[C@@H](CNC(=O)N1CCC2(CC1)C(=O)N(Cc1ccccc1)CN2c1ccccc1)C(=O)O [Compound 7, 2-((2,6-dimethoxyphenyl)carbonylamino)-3-((2,4,8-triaza-1-oxo-4-phenyl-2-benzylspiro[4.5]dec-8-yl)carbonylamino)propanoic acid]
2.9 | Cc1cccc(C)c1C(=O)N[C@@H](CNC(=O)N1CCC2(CC1)C(=O)N(Cc1ccccc1)CN2c1ccccc1)C(=O)O [Compound 13, 2-((2,6-dimethylphenyl)carbonylamino)-3-((2,4,8-triaza-1-oxo-4-phenyl-2-benzylspiro[4.5]dec-8-yl)carbonylamino)propanoic acid]
2.1 | CC(C)C(=O)NC1(c2ccccc2)CCN(C(=O)N[C@@H](CNC(=O)N2CCC3(CC2)C(=O)N(Cc2ccccc2)CN3c2ccccc2)C(=O)O)CC1 [Compound 27]
0.98 | O=C(O)[C@H](CNC(=O)N1CCC2(CC1)C(=O)N(Cc1ccccc1)CN2c1ccccc1)NC(=O)N1CCC(n2c(=O)[nH]c3ccccc32)CC1 [Compound 31, 2-((4-(2-oxo(3-hydrobenzimidazolyl))piperidyl)carbonylamino)-3-((2,4,8-triaza-1-oxo-4-phenyl-2-benzylspiro[4.5]dec-8-yl)carbonylamino)propanoic acid]
